Reference: article PMC11643450, “Pimozide and Adipic Acid: A New Multicomponent Crystalline Entity for Improved Pharmaceutical Behavior” (Molecules, 2024)
≈ marks a conversion by molar mass, not a printed value.

How the values were obtained:
[1] = Contact angle (wettability) of powder samples with drops of the different fluids; type: physicochemical
Description: In total, 120 mg of each sample was placed in a cylindrical ring, and the surface was smoothed with a scraper. The Contact Angle Meter DMe-211Plus (NTG Nuova Tecnogalenica, Cernusco, Italy) was used to record the images of a drop (9 μL) of the different fluids once placed in contact with the surface of the samples at progressive times. The contact angles were measured using the software supplied with the apparatus (three replicates).

[2] = Solubility at equilibrium, shake flask method with spectrophotometric determination; type: physicochemical; conditions: thermodynamic from solid, 21 °C
Description: The samples were sieved through a 230-mesh grid, 63 μm (Endecotts, London, UK).
An excess sample is placed in the flasks containing the three different fluids and left under stirring. At time intervals, a portion of the solution was taken and filtered on a 0.22 μm filter (Millipore Merck, Darmstadt, Germany). The drug concentration was determined using UV detection (Lambda 25, Perkin-Elmer, Monza, Italy). The test was repeated until equilibrium was reached.

[3] = parameters: method as in doi:10.1016/j.molliq.2015.12.054; conditions: cited from earlier work
[4] = In vitro dissolution test, USP apparatus 2 (paddle); type: physicochemical
Description: For the dissolution tests, the USP apparatus 2, paddle (Erweka DT-D6, Erweka GmbH, Dusseldorf, Germany) was used at 37.0 ± 0.5 °C and 50 rpm (three replicates). In 900 mL of 0.01 N hydrochloric acid pH = 2, which is the medium requested by the USP monograph (Pimozide Tablets, Official Monograph. In The United States Pharmacopeia (USP43-NF38); United States Pharmacopeia Convention, Inc.: Rockville, MD, USA, 2023; p. 3548), it can simulate a fasted stomach environment and, in other two fluids, simulates the following: pH 4.5 phosphate buffer (a condition that simulates the gastric environment in fed conditions) and deionized water (neutral conditions). The dissolution media were prepared according to the reagent and buffer solutions section of the USP [33]. […] The drug concentration was determined using UV detection (Lambda 25, Perkin-Elmer, Monza, Italy), and the data were analyzed using the software provided (Winlab V6 software, Perkin-Elmer, Monza, Italy).

Row | Wettability ([1]; pH 2) | solubility ([2]; aqueous buffer, pH 4.5 (phosphate buffer)) [µg/mL] | solubility ([2]; simulated gastric fluid, pH 2.0 (0.01N hydrochloric acid)) [µg/mL] | solubility ([2]; H2O (deionized water)) [µg/mL] | Passage into solution ([4]; deionized water (neutral conditions), compared with pH 4.5, 4 mg PMZ) | Fraction of the dose passed into solution in the first hour ([4]; pH 4.5 phosphate buffer (fed stomach), 4 mg PMZ) | Contact angle ([1]; deionized water) | Contact angle ([1]; pH 2, after about 3 min) | Contact angle ([1]; pH 2, initial) | Contact angle ([1]; pH 4.5) | Compound | BCS class [3]
1 | poorly wettable |  |  |  |  |  |  |  |  |  | O=C(O)CCCCC(=O)O [AAD, adipic acid] | 
2 |  | 6.4 ± 0.2 (≈ 13.9 µM) | 175 ± 1.8 (≈ 380 µM) | 1.4 ± 0.3 (≈ 3.03 µM) | further depressed | just a very tiny fraction of the dose | ~120 θ | 4 θ | 120 θ | about 130 θ | O=c1[nH]c2ccccc2n1C1CCN(CCCC(c2ccc(F)cc2)c2ccc(F)cc2)CC1 [PMZ, 1-(1-(4,4-bis(p-fluorophenyl)butyl)-4-piperidyl)-2-benzimidazoline] | class II
3 |  |  |  |  |  |  | less than 100 θ |  |  | less than 90 θ | [PMZH]2[adipate] [PMZ:AAD 0.66:0.33ev] | 
